Experimental data: publication PMC9370035, “Identification of 3-Oxindole Derivatives as Small Molecule HIV-1 Inhibitors Targeting Tat-Mediated Viral Transcription” (Molecules, 2022)

What was measured:
[1] = Cell viability (resazurin-based PrestoBlue) in parallel with infectivity assay; conditions: human, TZM-bl cells; for viability at 48 h, 3 µM: with infection of HIV-1 NL4-3 at MOI of 1; for CC50 at 48 h: serial dilution starting from 100 μM, read-out: CC50 (concentration that reduces cell viability by 50%)
HIV-1NL4-3 [2] = test: HIV-1 infectivity assay in TZM-bl cells (F-Luc under HIV-1 LTR); assay type: cell-based; conditions: for inhibition at 3 µM / IC50: Human immunodeficiency virus 1, NL43, TZM-bl; for inhibition at 3 µM: 48 h, read-out: Inhibition of HIV-1 Infectivity (%), TZM-bl cells, 3 μM, HIV-1 NL4-3 at MOI of 1, 48 h; for IC50: read-out: IC50 (inhibition of HIV-1 infection); for Inhibition ratio of HIV-1 infectivity, dose response / Inhibition of HIV-1 Infectivity (%): TZM-bl cells; for Inhibition ratio of HIV-1 infectivity, dose response: HIV-1NL4-3, up to a concentration of 25 μM; for Inhibition of HIV-1 Infectivity (%): 3 μM, HIV-1 NL4-3 at MOI of 1, 48 h
Source text: TZM-bl cells (also referred as JC53BL-13) expressing human CD4, CXCR4, and CCR5 in order to facilitate HIV-1 infection, which contain the firefly luciferase (F-Luc) gene under the control of HIV-1 long terminal repeat (LTR) promoter was used to determine inhibitory effect of the compounds on HIV-1 infection, as described previously with minor modifications. […] Without replacement of a culture medium, the cells were then infected with the HIV-1NL4-3 strain at a multiplicity of infection (MOI) of 1 to determine the exact inhibitory effect of compounds on a single round infection. After 48 h, the inhibitory effect of the compounds was determined using a Bright Glo luciferase assay kit (Promega). The infectivity data are presented as a percentage relative to the DMSO control (vehicle). The inhibitory effects of the compounds on viral replication were determined with some minor modifications, as described previously. […] PBMCs were pre-activated with phytohemagglutinin M (PHA-M) for 3 days. The pre-activated 4 × 10^5 of PBMCs were washed with fresh media to remove excess PHA-M and then infected with HIV-1NL4-3 or HIV-1AD8 as that of A3.01 infection.

[3] = tested on: Tat-mediated HIV-1 transcription; test: microbe, parasite or virus in culture; assay type: cell-based; conditions: for Inhibition of Tat-induced HIV-1 transcription, concentration response: 0 to 25 μM
Protocol: bl-DTR (TZM-bl-derived dual Tat reporter) cells derived from TZM-bl cells by insertion of two doxycycline-inducible lentiviral vector-expressing flag-tagged tat and Renilla-luciferase (R-Luc) genes were used to determine simultaneously both activities of Tat-mediated HIV-1 transcription and general cellular transcription, as described previously. Determination of the inhibitory effect of the compounds on Tat-mediated transcription was performed as described previously. In brief, 1 × 10^4 of bl-DTR cells cultured in 96-well plates were treated with compounds at a final concentration of 3 μM (Figure 3C) or with 1:2 serially diluted compounds at concentrations ranging from 0 to 25 μM (Figure 4 and Table 3). Subsequently, doxycycline was treated at a final concentration of 50 ng/mL to induce Tat-mediated F-Luc and R-Luc. At 24 h after treatment, the activities of F-Luc and R-Luc were determined by using a Dual-Glo™ luciferase assay system (Promega, Madison, WI, USA) according to the manufacturer’s protocols. The data are presented as a percentage relative to the DMSO control (vehicle) in the presence of doxycycline, and the experiment was performed in triplicate.

HIV-1NL4-3 [4] = test: HIV-1 replication assay (p24 […]) in A3.01 T cell line; assay type: cell-based; conditions: A3.01 cells, HIV-1NL4-3 MOI 0.1, 1.5 μM, 72 h
Protocol: (§1) TZM-bl cells (also referred as JC53BL-13) expressing human CD4, CXCR4, and CCR5 in order to facilitate HIV-1 infection, which contain the firefly luciferase (F-Luc) gene under the control of HIV-1 long terminal repeat (LTR) promoter was used to determine inhibitory effect of the compounds on HIV-1 infection, as described previously with minor modifications. In brief, 1 × 10^4 cells were cultured in 96-well plates for 24 h and then treated with compounds at a final concentration of 3 μM (Figure 1A) or with 1:2 serially diluted compounds at concentrations ranging from 0 to 25 μM (dose-response assay; Figure 1B and Table 2). Without replacement of a culture medium, the cells were then infected with the HIV-1NL4-3 strain at a multiplicity of infection (MOI) of 1 to determine the exact inhibitory effect of compounds on a single round infection. After 48 h, the inhibitory effect of the compounds was determined using a Bright Glo luciferase assay kit (Promega). The infectivity data are presented as a percentage relative to the DMSO control (vehicle). The inhibitory effects of the compounds on viral replication were determined with some minor modifications, as described previously. In brief, 5 × 10^4 cells/ well of A3.01 cells were infected with HIV-1NL4-3 at an MOI of 0.1 with the spinoculation at 300 g for 2 h at 25 °C. PBMCs were pre-activated with phytohemagglutinin M (PHA-M) for 3 days. The pre-activated 4 × 10^5 of PBMCs were washed with fresh media to remove excess PHA-M and then infected with HIV-1NL4-3 or HIV-1AD8 as that of A3.01 infection. After infection, the infectious media were replaced with fresh media (supplemented with international 10 units (IU)/mL of IL-2 for PBMCs containing 1.5 μM of compounds. At 72 h after infection, the inhibitory effect of the compounds on viral replication was determined by measuring the amount of p24, an HIV capsid protein, using an HIV-1 p24 […]™ kit (PerkinElmer, Waltham, MA, USA). Cell viability was determined by using the resazurin-based PrestoBlue™ cell viability reagent (Thermo Fisher Scientific, Waltham, MA, USA) according to the manufacturer’s protocols.

HIV-1NL4-3 [5] = test: HIV-1 replication assay (p24 […]) in PBMCs, CXCR4 tropic strain; assay type: cell-based; conditions: HIV-1NL4-3 MOI 0.1, 1.5 μM, 72 h
Protocol: as §1

TZM-bl cells = test: Cell viability (resazurin-based PrestoBlue) in parallel with infectivity assay; conditions: 3 μM, with infection of HIV-1 NL4-3 at MOI of 1

Row | Molecule | viability at 48 h, 3 µM [1] [%] | inhibition at 3 µM (HIV-1NL4-3 [2]) [%] | melting point [°C] | Inhibitory effect on viral replication (p24) (HIV-1NL4-3 [4]) | Inhibitory effect on viral replication (p24) (HIV-1NL4-3 [5]) | other results
1 | Cc1cn([C@H]2C[C@H](N=[N+]=[N-])[C@@H](CO)O2)c(=O)[nH]c1=O [AZT, azidothymidine, reference compound] | 94.8 ± 7.21 | 99.65 ± 0.048 | – | – | – | CC50 at 48 h [1]: > 100 µM; IC50 (HIV-1NL4-3 [2]): 0.079 ± 0.0237 µM
2 | CCOC(=O)C1(C/C=C/Cl)Nc2cccc(C)c2C1=O (centres unmarked) [Compound 6a, Ethyl (E)-2-(3-chloroallyl)-4-methyl-3-oxindole-2-carboxylate] | 106 ± 9.33 | ~20 | > 300 | no inhibition | no inhibition | CC50 at 48 h [1]: 87.4 ± 12.7 µM; IC50 ([3]; Human immunodeficiency virus 1, 24 h, read-out: IC50 (inhibition of Tat-mediated HIV-1 transcription)): 9.53 ± 0.48 µM; IC50 (HIV-1NL4-3 [2]): 13.7 ± 2.55 µM
3 | COC(=O)C1(C/C=C/Cl)Nc2ccc(OC)cc2C1=O (centres unmarked) [Compound 6b, Methyl (E)-2-(3-chloroallyl)-5-methoxy-3-oxindole-2-carboxylate] | 99.6 ± 14.2 | 0.55 ± 4.34 | > 300 | no inhibition | no inhibition | –
4 | CCCC1(C(=O)OC)Nc2ccc(OC)cc2C1=O (centres unmarked) [Compound 6c, Methyl 5-methoxy-3-oxo-2-propylindoline-2-carboxylate] | 92.7 ± 5.77 | 16.2 ± 5.52 | 117 to 118 | – | – | –
5 | C=CCC1(C(=O)OC)Nc2cc(C)cc(C)c2C1=O (centres unmarked) [Compound 6h, Methyl 2-allyl-4,6-dimethyl-3-oxindole-2-carboxylate] | 107 ± 4.73 | 23.6 ± 4.46 | 147 | no inhibition | no inhibition | Inhibition ratio of HIV-1 infectivity, dose response (HIV-1NL4-3 [2]): did not show further increased inhibitory effect
6 | CCCC1(C(=O)OC)Nc2cc(C)cc(C)c2C1=O (centres unmarked) [Compound 6i, Methyl 4,6-dimethyl-3-oxo-2-propylindoline-2-carboxylate] | 99.4 ± 8.83 | 9.15 ± 0.96 | 132 to 133 | no inhibition | no inhibition | –
7 | CCOC(=O)c1[nH]c2cccc(C)c2c1OC/C=C/Cl [Compound 7a, ethyl (e)-3-((3-chloroallyl)oxy)-4-methyl-1h-indole-2-carboxylate] | 117 ± 2.7 | ~20 | 226 | – | – | Inhibition of Tat-induced HIV-1 transcription, concentration response ([3]; bl-DTR cells): do not affect; Inhibition ratio of HIV-1 infectivity, dose response (HIV-1NL4-3 [2]): ~50%
8 | COC(=O)c1[nH]c2ccc(OC)cc2c1OC/C=C/Cl [Compound 7b, methyl (e)-3-((3-chloroallyl)oxy)-5-methoxy-1h-indole-2-carboxylate] | 110 ± 4.96 | ~20 | > 300 | – | – | Inhibition of Tat-induced HIV-1 transcription, concentration response ([3]; bl-DTR cells): do not affect; Inhibition ratio of HIV-1 infectivity, dose response (HIV-1NL4-3 [2]): ~50%
9 | CC(C)[C@]12O[C@H]1[C@@H]1O[C@]13[C@]1(O[C@H]1C[C@H]1C4=C(CC[C@@]13C)C(=O)OC4)[C@@H]2O [triptolide, reference compound] | – | – | – | – | – | Tat-induced transcriptional activity (F-Luc) ([3]; bl-DTR cells, 3 μM, doxycycline 50 ng/mL, 24 h): specific inhibition
10 | Methyl (E)-2-(3-chloroallyl)-3-oxindole-2-carboxylate [Compound 6e] | – | – | – | – | – | Cell Viability (%) (TZM-bl cells): 95.66 ± 7.32%; Inhibition of HIV-1 Infectivity (%) (HIV-1NL4-3 [2]): 11.49 ± 5.66%
11 | Methyl (E)-2-(3-chloroallyl)-5-methyl-3-oxindole-2-carboxylate [Compound 6d] | – | – | – | – | – | Cell Viability (%) (TZM-bl cells): 96.96 ± 9.15%; Inhibition of Tat-induced HIV-1 transcription, concentration response ([3]; bl-DTR cells): did not inhibit; Inhibition of HIV-1 Infectivity (%) (HIV-1NL4-3 [2]): 0.00 ± 10.66%
